Test results reported in patent US20240285583A1, “PHARMACEUTICAL COMPOSITION COMPRISING 1-(3-CYANO-1-ISOPROPYL-INDOL-5-YL)PYRAZOLE-4-CARBOXYLIC ACID” (LG CHEM, LTD., priority 2021, published 2024).

Columns and labels:
[1] = test system: gout patient group; experiment: Phase 2 clinical trial (NCT03934099): blood uric acid concentration in gout patients; assay type: in vivo, human
Description: (§1) A phase 2 clinical trial was conducted to analyze the dosage, TEAEs, and the like when the compound of Formula 1 (1-(3-cyano-1-isopropyl-indol-5-yl)pyrazol-4-carboxylic acid; compound of Example 1) is administered to a gout patient group.
• 1. Written informed consent (signed and dated) provided voluntarily prior to the start of the study. • 2. Male or female aged from 18 to 75 • 3. History or experience of hyperuricemia and gout in accordance with the criteria of the American College of Rheumatology. • 4. Self-reported history of 2 or more gout flare within 12 months prior to screening visit (Visit 1). • 5. Blood uric acid (sUA) levels at Visit 1 of 6.0 mg/dL or more in subjects who were receiving urate lower therapy (ULT) with allopurinol, febuxostat, probenecid, or lesinurad; and SUA levels at Visit 1 of 8.0 mg/dL or more and 12.0 mg/dL or less in subjects who had no history of receiving the ULT or were not receiving the ULT at visit 1. • 6. SUA levels of 8.0 mg/dL or more and 12.0 mg/dL or less at Visit 3. • 7. Body mass index of 42 kg/m^2 or less at screening visit (Visit 1). • 8. Estimated glomerular filtration rate (eGFR) of 60 mL/min/1.73 m^2 or more at screening visit (Visit 1). • 9. Subjects of childbearing potential with a negative pregnancy test result at screening visit (Visit 1). […]

[2] = test system: gout patient group; experiment: Phase 2 clinical trial (NCT03934099): analysis of TEAEs; assay type: in vivo, human
Description: as §1
Selected patients gave written informed consent according to institutional and study procedures. After screening and wash-out processes (days 26 to 33 pre-dose), a total of 156 patients were finally enrolled, and each patient was randomly assigned to 5 groups of 50 mg, 100 mg and 200 mg dosing groups of the compound of Example 1, a placebo group, and a febuxostat group. Patients in each group self-administered 1 tablet of a combination drug (colchicine, 0.6 mg/day) for the prevention of gout flare along with the assigned investigational drug (50 mg, 100 mg and 200 mg doses of the compound of Example 1, placebo, and 40 mg of febuxostat group) orally, once every morning, at about the same time each day, with water, regardless of food.
The drug was administered for 84 days by setting the first dosing day of the drug as day 1, and basic tests, blood uric acid concentration and the like were measured at clinic visits on 14 days (week 2), 28 days (week 4), 56 days (week 8), and 84 days (week 12) during the dosing period to determine whether TEAEs occurred. After the end of drug administration, a safety follow-up was performed for an additional 2 weeks (98 days, week 14).
Among all patient groups participating in the clinical trial, although the administration was stopped for 3 patients due to headache, gout flare in the left ankle, and liver dysfunction in the 100 mg dosing group of Example 1 and for 1 patient due to an increase in hepatic enzyme in the 200 mg dosing group, no significant treatment emergency adverse event (TEAE) was found in the remaining patient groups.

[3] = test system: gout patients; details: patient group receiving the drug, previous results; cited from earlier work

Compound	blood uric acid lowering effect compared to febuxostat ([1]; 50 mg, 100 mg, 200 mg vs febuxostat 40 mg)	blood uric acid concentration kept within the normal range during the dosing period ([1]; doses of 50 mg, 100 mg and 200 mg, reached within 2 weeks)	incidence of TEAEs ([2]; 50 mg, 100 mg and 200 mg groups, vs placebo and febuxostat groups)	patients for whom administration was stopped ([2]; 100 mg dosing group, headache, gout flare in the left ankle, liver dysfunction)	patients for whom administration was stopped ([2]; 200 mg dosing group, increase in hepatic enzyme)	adverse cardiovascular TEAEs ([2]; all dosing groups)	patients with a blood uric acid concentration of less than 6 mg/dL [3]
CC(C)n1cc(C#N)c2cc(-n3cc(C(=O)O)cn3)ccc21 [Example 1, 1-(3-cyano-1-isopropyl-indol-5-yl)pyrazole-4-carboxylic acid]	equivalent or higher blood uric acid lowering effect	< 6.0 mg/dL	did not show a significant difference in the incidence of TEAEs	3 patients	1 patient	no reports of adverse cardiovascular TEAEs having a causal relationship	
Oc1ncnc2[nH]ncc12 [allopurinol]							about 40%
